Results taken from the supplement of paper PMC10702517.
± gives the standard deviation.

Experiment: chemical recovery from spiked human plasma; higher = better extraction
Conditions: pooled human plasma
[1] = extraction method: PES+SPE (3 d PDMS equilibration then HLB SPE)
[2] = extraction method: SPE only (HLB 96-well)
[3] = extraction method: solvent precipitation (ACN + hexane)
[4] = extraction method: SPE only (HLB 96-well), PES comparison experiment

| Compound | chemical recovery [1] | chemical recovery [2] | chemical recovery [3] | chemical recovery [4] |
| --- | --- | --- | --- | --- |
| CC(Oc1ccc(Oc2ncc(C(F)(F)F)cc2Cl)cc1)C(=O)O (stereo not given) [Haloxyfop-P] | 41 ± 2.6% | 33.1 ± 3.1% | 68.1 ± 2.8% | – |
| Cc1nccc2c1[nH]c1ccccc12 [Harman] | 36.2 ± 5.5% | 34.9 ± 2.5% | 74.4 ± 3.2% | 48.2 ± 6% |
| COc1ccc2c(c1)[nH]c1c(C)nccc12 [Harmine] | 37.8 ± 5.3% | 37.3 ± 2.9% | – | 48.6 ± 4.2% |
| ClC1=C(Cl)C2(Cl)C3C4OC4C(Cl)C3C1(Cl)C2(Cl)Cl (stereo not given) [Heptachlor epoxide] | – | 1.06 ± 0.28% | 18.7 ± 2.8% | – |
| c1ccc(NNc2ccccc2)cc1 [Hydrazobenzene] | – | 2.13 ± 0.29% | – | – |
| CC(=O)OCC(=O)[C@@]1(O)CC[C@H]2[C@@H]3CCC4=CC(=O)CC[C@]4(C)[C@H]3[C@@H](O)C[C@@]21C [Hydrocortisonacetate] | – | – | – | 47.4 ± 6.2% |
| CCN(CCO)CCCC(C)Nc1ccnc2cc(Cl)ccc12 (stereo not given) [Hydroxychloroquine] | – | – | – | 9.45 ± 7.5% |
| N=C1NCCN1Cc1ccc(Cl)nc1 [Imidacloprid-guanidine] | – | 26.9 ± 4.3% | 73 ± 3% | – |
| O=C(O)Cc1c[nH]c2ccccc12 [Indole-3-acetic acid] | – | – | – | 79.9 ± 19% |
| CC(C)C1CCC(Cc2ccc(Cl)cc2)C1(O)Cn1cncn1 (stereo not given) [Ipconazole] | 56.7 ± 6% | 45.5 ± 5.7% | 75.8 ± 5.9% | – |
| CC(C)NC(=O)N1CC(=O)N(c2cc(Cl)cc(Cl)c2)C1=O [Iprodione] | – | 28.3 ± 5.6% | 6.49 ± 2.1% | – |
| CC[C@H](C)[C@H]1O[C@]2(CC[C@@H]1C)C[C@@H]1C[C@@H](C/C=C(\C)[C@@H](O[C@H]3C[C@H](OC)[C@@H](O[C@H]4C[C@H](OC)[C@@H](O)[C@H](C)O4)[C@H](C)O3)[C@@H](C)/C=C/C=C3\CO[C@@H]4[C@H](O)C(C)=C[C@@H](C(=O)O1)[C@]34O)O2 [Ivermectin B1a] | – | – | – | 16.6 ± 4.9% |
| CNC1(c2ccccc2Cl)CCCCC1=O (stereo not given) [Ketamine] | 10.8 ± 4.5% | 32.2 ± 2.1% | 59 ± 2.7% | 45.4 ± 6.8% |
| CC[C@@H](C(N)=O)N1CCCC1=O [Levetiracetam] | – | 21.4 ± 8.7% | 78 ± 3.8% | – |
| CON(C)C(=O)Nc1ccc(Cl)c(Cl)c1 [Linuron] | 46.9 ± 7.1% | 50.1 ± 0.84% | 69.6 ± 2.5% | 50.2 ± 7.8% |
| Cc1cc(Cl)ccc1OCCCC(=O)O [MCPB] | 44.6 ± 2% | 35.9 ± 1.6% | 66.9 ± 4.5% | – |

| Compound | chemical recovery [1] | chemical recovery [2] | chemical recovery [3] | chemical recovery [4] |
| --- | --- | --- | --- | --- |
| C#CCOc1ccc(CCNC(=O)C(OCC#C)c2ccc(Cl)cc2)cc1OC (stereo not given) [Mandipropamid] | 70.3 ± 10% | 58.4 ± 2.1% | 82.4 ± 3.2% | – |
| Nc1nc(N)nc(N)n1 [Melamine] | 2.47 ± 0.79% | 1.58 ± 0.33% | – | 0.589 ± 1.2% |
| CC#Cc1cc(C)nc(Nc2ccccc2)n1 [Mepanipyrim] | – | – | 70.7 ± 2.9% | – |
| C[N+]1(C)CCCCC1 [Mepiquat] | 0.578 ± 0.063% | 0.813 ± 0.44% | 108 ± 18% | 11.3 ± 9.5% |
| Cc1nnc(-c2ccccc2)c(=O)n1N [Metamitron] | 53 ± 4.2% | 46.3 ± 4.3% | 70.3 ± 0.41% | 92.5 ± 14% |
| CNC(=O)Oc1cc(C)c(S(C)(=O)=O)c(C)c1 [Methiocarb-sulfone] | 0.129 ± 0.019% | 19.9 ± 1.6% | – | – |
| CNC(=O)Oc1cc(C)c(SC)c(C)c1 [Methiocarb] | 0.0787 ± 0.035% | 32.8 ± 0.78% | – | 0.163 ± 0.33% |
| CNC(=O)O/N=C(\C)SC [Methomyl] | 50.6 ± 5% | 47.3 ± 1.8% | 75.8 ± 3.8% | – |
| Cn1sc(Cl)cc1=O [Methylchloroisothiazolinone] | – | 0.906 ± 0.2% | 0.0132 ± 0.023% | 0.321 ± 0.64% |
| COc1cc(C)c(C(=O)c2c(OC)ccc(Br)c2C)c(OC)c1OC [Metrafenone] | – | 50.3 ± 9.1% | 76.4 ± 4.6% | – |
| CN(C)C(=O)Nc1ccc(Cl)cc1 [Monuron] | 60.2 ± 3.6% | 49.6 ± 3.1% | 74.2 ± 1.8% | – |
| COc1c(C(C)(C)C)cc([N+](=O)[O-])c(C)c1[N+](=O)[O-] [Musk ambrette] | – | 2.96 ± 0.74% | – | – |
| Cc1c([N+](=O)[O-])c(C)c([N+](=O)[O-])c(C(C)(C)C)c1[N+](=O)[O-] [Musk xylene] | – | 97.1 ± 31% | 33.5 ± 9.3% | – |
| CCN(CC)c1ccccc1 [N,N-Diethylaniline] | 0.987 ± 1.6% | 5.76 ± 3.4% | 0.0912 ± 0.079% | – |
| CCCCCCCCCCCCN(C)C [N,N-Dimethyldodecylamine] | – | – | 78.3 ± 23% | 42.1 ± 8.8% |
| CC(C)CC(C)Nc1ccc(Nc2ccccc2)cc1 (stereo not given) [N-(1,3-Dimethylbutyl)-N'-phenyl-1,4-phenylenediamine] | – | 1.42 ± 1.6% | – | – |

Further lines, with some results ahead:

| chemical recovery [1] | chemical recovery [2] | chemical recovery [3] | Compound | chemical recovery [4] |
| --- | --- | --- | --- | --- |
| – | 50.1 ± 19% | – | CCCCCCCCCCCCCCCC[N+](C)(C)C [Hexadecyltrimethylammonium] | – |
| 3.2 ± 1.1% | 8.65 ± 5.7% | 19.7 ± 6% | CCCCCCN [Hexylamine] | – |
| – | 0.169 ± 0.033% | 41 ± 2.4% | CC1CC(OC(=O)c2ccccc2O)CC(C)(C)C1 (stereo not given) [Homosalate] | – |
| 37.5 ± 5% | 45.2 ± 13% | – | O=C(O)/C=C/c1c[nH]c2ccccc12 [Indole-3-acrylic-acid] | – |
| – | 8.76 ± 5.2% | 52.5 ± 14% | c1ccc2[nH]ccc2c1 [Indole] | – |
| 19.4 ± 3.7% | 36.8 ± 1.1% | 77.2 ± 5.5% | CCC(Cc1ccccc1)(C(=O)c1ccc(N2CCOCC2)cc1)N(C)C (stereo not given) [Irgacure-369] | – |
| – | 0.236 ± 0.16% | – | CCCCCCCCSc1nc(Nc2cc(C(C)(C)C)c(O)c(C(C)(C)C)c2)nc(SCCCCCCCC)n1 [Irganox-565] | – |
| – | – | 55.3 ± 6.4% | CC(C)(C)c1cc(CCC(=O)NCCCCCCNC(=O)CCc2cc(C(C)(C)C)c(O)c(C(C)(C)C)c2)cc(C(C)(C)C)c1O [Irganox-1098] | – |
| – | – | 12.5 ± 5.4% | O=C(O)c1cccc(C(=O)O)c1 [Isophthalic-acid] | – |
| 56.7 ± 6.3% | 42.1 ± 4.9% | 72.1 ± 4.6% | CC(C)C1C2CCC1c1c(NC(=O)c3cn(C)nc3C(F)F)cccc12 (stereo not given) [Isopyrazam] | – |
| – | 11.5 ± 2.3% | 30.3 ± 2.3% | CC[C@H](C)[C@H]1O[C@]2(CC[C@@H]1C)C[C@@H]1C[C@@H](C/C=C(\C)[C@@H](O[C@H]3C[C@H](OC)[C@@H](O[C@H]4C[C@H](OC)[C@@H](O)[C@H](C)O4)[C@H](C)O3)[C@@H](C)/C=C/C=C3\CO[C@@H]4[C@H](O)C(C)=C[C@@H](C(=O)O1)[C@]34O)O2 [Ivermectin-B1a] | – |
| 50.6 ± 7.1% | 36.5 ± 3.8% | 30.8 ± 3.3% | N[C@@H](Cc1cc(I)c(Oc2cc(I)c(O)c(I)c2)c(I)c1)C(=O)O [L-Thyroxine] | – |
| – | 21.9 ± 6.3% | – | CCCCCCCCCCCCOC(=O)c1cc(O)c(O)c(O)c1 [Lauryl-gallate] | – |
| 1.08 ± 0.9% | 37.5 ± 7.4% | 67.9 ± 4.2% | CCN(CC)CC(=O)Nc1c(C)cccc1C [Lidocaine] | 42.3 ± 6.8% |
| – | – | 74.7 ± 4.9% | CCC[C@@H]1C[C@@H](C(=O)N[C@@H]([C@H]2O[C@H](SC)[C@H](O)[C@@H](O)[C@H]2O)[C@@H](C)O)N(C)C1 [Lincomycin] | 42.1 ± 11% |
| 42.8 ± 3.6% | 35.7 ± 3.2% | 76.1 ± 3.5% | C[C@@H](O)CCCCn1c(=O)c2c(ncn2C)n(C)c1=O [Lisofylline] | – |
| 37.8 ± 2.6% | 41.7 ± 7.2% | 74.6 ± 2.9% | COc1ccc2[nH]cc(CCNC(C)=O)c2c1 [Melatonin] | – |
| 0.434 ± 0.15% | 35.9 ± 3% | 61 ± 4.4% | CC1CCN(CCCC(=O)c2ccc(F)cc2)CC1 [Melperon] | 48.8 ± 6.8% |

| chemical recovery [1] | chemical recovery [2] | chemical recovery [3] | Compound | chemical recovery [4] |
| --- | --- | --- | --- | --- |
| 40.3 ± 5.8% | 41.4 ± 2.8% | 74.9 ± 5.7% | COC(=O)c1ccc(CNS(C)(=O)=O)cc1S(=O)(=O)NC(=O)Nc1nc(OC)cc(OC)n1 [Mesosulfuron-methyl] | – |
| 53 ± 3.3% | 49.5 ± 3.9% | 73.9 ± 3.2% | Cc1nnc(-c2ccccc2)c(=O)[nH]1 [Metamitron-desamino] | – |
| 49 ± 6.5% | 40.1 ± 3.3% | 73.7 ± 3.7% | Cc1cccc(C)c1N(Cn1cccn1)C(=O)CO [Metazachlor-2-hydroxy] | – |
| 0.198 ± 0.34% | – | – | C=C(C)C(N)=O [Methacrylamide] | – |
| 71.6 ± 6.9% | 47.4 ± 5.3% | 73.1 ± 4.4% | Cc1cc(O)cc(C)c1[S+](C)[O-] (stereo not given) [Methiocarb-sulfoxide-phenol] | – |
| 40.6 ± 2.7% | 36.1 ± 3.5% | 70.6 ± 2% | COc1ccccc1OCC(O)COC(N)=O (stereo not given) [Methocarbamol] | – |
| 60.3 ± 4% | 60.1 ± 3.9% | – | CN(Cc1cnc2nc(N)nc(N)c2n1)c1ccc(C(=O)N[C@@H](CCC(=O)O)C(=O)O)cc1 [Methotrexate] | 38.1 ± 4.1% |
| – | 24.9 ± 3.3% | 57.6 ± 7% | COC(=O)CCc1cc(C(C)(C)C)c(O)c(C(C)(C)C)c1 [Methyl-3-(3,5-di-tert-butyl-4-hydroxyphenyl)propionate] | – |
| 41.1 ± 5% | 33.5 ± 2.9% | 54.1 ± 9.1% | CC(C)NCC(O)COc1ccc(CC(=O)O)cc1 (stereo not given) [Metoprolol acid] | – |
| – | 52.1 ± 13% | 47.1 ± 8.4% | CC(C)NCC(O)COc1ccc(CC(=O)O)cc1 (stereo not given) [Metoprolol-acid] | – |
| 21.9 ± 2.5% | 36.2 ± 2.6% | 75.2 ± 2.3% | COCCc1ccc(OCC(O)CNC(C)C)cc1 (stereo not given) [Metoprolol] | 44 ± 5.4% |
| – | 21.2 ± 3.4% | 70.6 ± 4.1% | Cc1ncc([N+](=O)[O-])n1CCO [Metronidazole] | – |
| 0.274 ± 0.11% | 30.4 ± 2.3% | 69.4 ± 3.5% | CN1CCN2c3ncccc3Cc3ccccc3C2C1 (stereo not given) [Mirtazapine] | 29.9 ± 9.5% |
| – | 44.7 ± 3.3% | 65.5 ± 6.9% | CC(C)COC(=O)c1ccccc1C(=O)O [Mono-iso-butyl-phthalate] | – |
| 59.6 ± 9.9% | 57.7 ± 4.3% | 65.3 ± 7.2% | O=C(O)c1ccccc1C(=O)OCc1ccccc1 [Monobenzyl-phthalate] | – |
| – | 1.17 ± 0.25% | 15.5 ± 3.3% | CC(=O)c1c(C)c([N+](=O)[O-])c(C(C)(C)C)c([N+](=O)[O-])c1C [Musk ketone] | – |
| 27.7 ± 10% | 13.6 ± 0.95% | – | CCCCCCCCCC(=O)N(C)C [N,N-Dimethyldecan-1-amide] | – |
| 42.3 ± 14% | 39.9 ± 3.7% | – | C=C(C)C(=O)NCCCN(C)C [N-(3-Dimethylamino)propyl)methacrylamide] | – |
